Results on 8 compounds are retold here after patent US20020045595A1, “N6 heterocyclic 8-modified adenosine derivatives” (priority 1999, published 2002).

One assay deals with T1, A1 AdoR (Mesocricetus auratus, UniProt A0A1U8BVR4).
T1 construct: endogenous in cells; host or cells: DDT1 (DDT) hamster vas deferens smooth muscle cells, membrane preparation
T1 sequence (A0A1U8BVR4 1-326): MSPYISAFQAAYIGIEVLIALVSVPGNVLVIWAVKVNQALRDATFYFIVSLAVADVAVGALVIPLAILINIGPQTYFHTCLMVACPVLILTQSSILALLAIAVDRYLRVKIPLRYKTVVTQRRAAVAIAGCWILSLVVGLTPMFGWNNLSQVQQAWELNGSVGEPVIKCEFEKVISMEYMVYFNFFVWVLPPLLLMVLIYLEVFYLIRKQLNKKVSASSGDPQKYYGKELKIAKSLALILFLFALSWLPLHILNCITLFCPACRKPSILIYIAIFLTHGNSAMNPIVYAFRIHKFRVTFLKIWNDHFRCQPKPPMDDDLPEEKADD
Briefly: A1-agonist stimulated [35S]GTPγS binding assay, DDT1 membranes. The class given is biochemical, hamster. To be noted: [35S]GTPγS binding normalized to the full agonist CPA. On the procedure: (§1) DDT cells (hamster vas deferens smooth muscle cell line) were grown as monolayers in petri dishes using Dulbecco's Modified Eagle's Medium (DMEM) containing 2.5 μg ml^−1 amphotericin B, 100 U ml^−1 penicillin G, 0.1 mg ml^−1 streptomycin sulfate and 5% fetal bovine serum in a humidified atmosphere of 95% air and 5% CO2. Cells were subcultured twice weekly by dispersion in Hank's Balanced Salt Solution (HBSS) without the divalent cations and containing 1 mM EDTA. The cells were then seeded in growth medium at a density of […] per plate and experiments were performed 4 days later at approximately one day preconfluence.
Attached cells were washed twice with HBSS (2×10 ml), scraped free of the plate with the aid of a rubber policeman in 5 ml of 50 mM Tris-HCl buffer pH 7.4 at 4° C. and the suspension homogenized for 10 s. The suspension was then centrifuged at 27,000 x g for 10 min. The pellet was resuspended in homogenization buffer by vortexing and centrifuged as described above. The final pellet was resuspended in 1 vol of 50 mM Tris-HCl buffer pH 7.4 containing 5 mM MgCl2 for A1 AdoR assays. For the [^35S]GTPγS binding assay the final pellet was resuspended in 50 mM Tris-HCl pH 7.4 containing 5 mM MgCl2, 100 mM NaCl and 1 mM dithiothreitol. This membrane suspension was then placed in liquid nitrogen for 10 min, thawed and used for assays. The protein content was determined with a Bradford™ Assay Kit using bovine serum albumin as standard.
A1-agonist stimulated [^35S] GTPγS binding was determined by a modification of the method described by Giersckik et al. (1991) and Lorenzen et al. (1993). […] Nonspecific binding was determined by the addition of 10 μM GTPγS. […] Previous reports have shown that agonist stimulated [^35S]GTPγS binding was dependent on the presence of GDP (Gierschik et al., 1991; Lorenzen et al., 1993; Traynor & Nahorski, 1995). […] In saturation experiments, 0.5 nM [^35S]GTPγS was incubated with 0.5-1000 nM GTPγS. At the end of the incubation, each suspension was filtered and the retained radioactivity determined as described above.
For orientation: GTPγS resists hydrolysis and so accumulates on activated G proteins.

A further assay deals with T2, A1 receptor (Sus scrofa, UniProt I3LEN5).
T2 sequence (I3LEN5 1-326): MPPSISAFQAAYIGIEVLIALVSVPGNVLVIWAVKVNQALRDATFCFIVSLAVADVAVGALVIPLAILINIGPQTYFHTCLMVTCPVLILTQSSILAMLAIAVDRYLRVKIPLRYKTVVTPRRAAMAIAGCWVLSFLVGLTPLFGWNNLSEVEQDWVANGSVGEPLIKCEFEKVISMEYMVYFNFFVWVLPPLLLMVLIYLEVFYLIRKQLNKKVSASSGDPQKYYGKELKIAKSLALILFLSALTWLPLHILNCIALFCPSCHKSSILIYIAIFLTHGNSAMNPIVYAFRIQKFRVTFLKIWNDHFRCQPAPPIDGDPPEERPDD
Kind of assay: Competitive binding assay, pig striatum membranes, [3H]CPX. The conditions noted are these: pig striatum membrane prep, antagonist [3H]CPX 2 nM. Here is the method: Pig striatum were prepared by homogenation in 50 mM Tris buffer ( 5x volume of tissue mass pH=7.4). After centrifugation at 19,000 rpm for 25 minutes at 4° C., the supernatant was discarded, and the process was repeated twice. Compositions of this invention were assayed to determine their affinity for the A1 receptor in a pig striatum membrane prep or a DDT1 membrane prep. Briefly, 0.2 mg of pig striatal membranes or DDT1 cell membranes were treated with adenosine deaminase and 50 mM Tris buffer (pH=7.4) followed by mixing. To the pig membranes was added 2 μL of serially diluted DMSO stock solution of the compounds of this invention at concentrations ranging from 100 microM to 10 nM. The control received 2 microL of DMSO alone, then the antagonist [^3H] 8-cyclopentylxanthine (CPX) for pig striatum or the agonist [3H] 2-chloro-6-cyclopentyladenosine (CCPA) for DDT1 membranes in Tris buffer (50 mM, pH of 7.4) was added to achieve a final concentration of 2 nM. After bation at 23 C. for 2 h, then the solutions were filtered using a membrane harvester using iple washing of the membranes (3 x). The filter disks were counted in scintillation cocktail rding the amount of displacement of tritiated CPX or by the competitive binding ositions of this invention. Greater than a 5 point curve was used to generate Ki's and the er of experiments is indicated in the column marked in Table 1, below: […]

Assay [1] has as its system A1 adenosine receptor (DDT1 cells). Kind of assay: cAMP assay (SPA) in DDT1 cells with forskolin. To be noted: 5 μM forskolin; for cAMP: rolipram 50 μM, normalized to the full agonist CPA. In kind it is cell-based, hamster. Here is the method: as §1
A scintillation proximity assay (SPA) using rabbit antibodies directed at cAMP using an added tracer of adenosine 3′,5′-cyclic phosphoric acid 2′-O-succinyl-3-[^125I] iodotyrosine methyl ester and fluoromicrospheres containing anti-rabbit specific antibodies as described by Amersham Pharmacia Biotech (Biotrak cellular communication assays). Briefly, DDT1 cells were cultured in clear bottomed 96 well microtiter plates with opaque wells at concentrations between 10^4 to 10^6 cells per well in 40 μl of HBSS at 37° C. (5% CO2 and 95% humidity). The partial or full A1 agonists (5 μl )of this invention were incubated at various concentrations with the DDT1 cells in the presence of rolipram (50 μM), and 5 μM forskolin for 10 min at 37° C. The cells were immediately lysed by treatment 5 μl of 10% dodecyltrimethylammonium bromide followed by shaking using microplate shaker. After incubation of the plate for 5 minutes, an immunoreagent solution (150 μl containing equal volumes of tracer, antiserum, and SPA fluorospheres) was added to each well followed by sealing the plate. After 15-20 h at 23° C., the amount of bound [^125I] cAMP to the fluoromicrospheres was determined by counting in a microtitre plate scintillation counter for 2 minutes. Comparison of counts with standard curves generated for cAMP using a similar protocol afforded the cAMP present after cell lysis.

On A1 AdoR, `CCNc1nc2c(N[C@@H]3CCOC3)ncnc2n1[C@@H]1O[C@H](CO)[C@@H](O)[C@H]1O` [Compound 5, 2-{6-[((3 R)oxolan-3-yl)amino]-8-(ethylamino)purin-9-yl}(4 S,2 R,3 R,5 R)-5-(hydroxymethyl)oxolane-3,4-diol] displayed a GIPγS of 89%. The compound further gave a Ki at A1 receptor of 137 nM.
In the case of `CNc1nc2c(NC3CCOC3)ncnc2n1C1OC(CO)C(O)C1O` (stereo not drawn) [Compound 7], the Ki on A1 receptor was 799 nM.
On A1 receptor, `CCCCNc1nc2c(N[C@@H]3CCOC3)ncnc2n1[C@@H]1O[C@H](CO)[C@@H](O)[C@H]1O` [Compound 9, 2-{6-[((3 R)oxolan-3-yl)amino]-8-(butylamino)purin-9-yl}(4S,2 R,3 R,5 R)-5-(hydroxymethyl)oxolane-3,4-diol] gave a Ki of 2840 nM.
Consider `OC[C@H]1O[C@@H](n2cnc3c(NC4CCCC4)ncnc32)[C@H](O)[C@@H]1O` [CPA, N-6-cyclopentyladenosine, reference compound], for which, in assay [1], the “forskolin induced cAMP generation” value is “back to basal levels” and the cAMP is 100%.
For `CCCNc1nc2c(N[C@@H]3CCOC3)ncnc2n1[C@@H]1O[C@H](CO)[C@@H](O)[C@H]1O` [Compound 8, 2-{6-[((3 R)oxolan-3-yl)amino]-8-(propylamino)purin-9-yl}(4 S,2 R,3 R,5 R)-5-(hydroxymethyl)oxolane-3,4-diol], the affinity at A1 receptor, expressed as Ki, was 1040 nM.
In turn, `C=CCNc1nc2c(N[C@@H]3CCOC3)ncnc2n1[C@@H]1O[C@H](CO)[C@@H](O)[C@H]1O` [Compound 12, 2-{6-[((3 R)oxolan-3-yl)amino]-8-(prop-2-enylamino)purin-9-yl}(4 S,2 R,3 R,5 R)-5-(hydroxymethyl)oxolane-3,4-diol] came in with a GIPγS on A1 AdoR of 77%. The same compound came in with a cAMP in assay [1] of 42%.
For `CC(C)Nc1nc2c(N[C@@H]3CCOC3)ncnc2n1[C@@H]1O[C@H](CO)[C@@H](O)[C@H]1O` [Compound 11, 2-{6-[((3 R)oxolan-3-yl)amino]-8-[(methylethyl)amino]purin-9-yl}(4 S,2 R,3 R,5 R)-5-(hydroxymethyl)oxolane-3,4-diol], at A1 AdoR, the GIPγS was 68%. Moreover, the cAMP in assay [1] came out at 37%.
Turning to `OC[C@H]1O[C@@H](n2c(NCc3ccccc3)nc3c(N[C@@H]4CCOC4)ncnc32)[C@H](O)[C@@H]1O` [Compound 10, 2-{6-[((3 R)oxolan-3-yl)amino]-8-[benzylamino]purin-9-yl}(4 S,2 R,3 R,5 R)-5-(hydroxymethyl)oxolane-3,4-diol], the Ki on A1 receptor turned out to be 7470 nM.

Usually Ki stands for the equilibrium dissociation constant of an inhibitor or competing ligand from its target.
